Consider 16 molecules from patent US8148391B2 (Cephalon, Inc., priority 2006, dated 2012).

For assay [1], the target named is T1, c-Met (cytoplasmic domain) (Homo sapiens, UniProt P08581).
T1 construct: 10 ng/mL c-Met (cytoplasmic domain, Invitrogen Corporation #PV3143); purchased Invitrogen Corporation PV3143
Description: c-Met Kinase Assay (same methods as for ALK, with modifications). It counts as biochemical. In short, it runs like this:
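Europium-labeled PT66 antibody (Eu-N1) detects substrate phosphorylation on wells coated with phospholipase C-γ at 10 μg/mL. The kinase, the cytoplasmic domain of c-Met at 10 ng/mL, starts the reaction, which proceeds 15 minutes at 37° C.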

Assay [2] has as its target T2, baculovirus-expressed ALK (Homo sapiens, UniProt Q9UM73).
T2 construct: host or cells: baculovirus expression system
In words: ALK Kinase Assay (ELISA-type, time-resolved fluorescence). The assay is classed as biochemical. Particulars: 1 μM ATP (Km level). In short, it runs like this: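 Plates coated with phospholipase C-γ substrate (10 μg/mL in TBS); reaction started with 30 ng/ml ALK and run 15 min at 37° C. Phosphorylated substrate detected with Eu-N1-labeled PT66 antibody. IC50 from sigmoidal variable-slope fit of percent inhibition vs log concentration.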
For orientation: ELISA stands for enzyme-linked immunosorbent assay.

[3] abbreviates: 1 μM ATP (Km level); read-out: cMet Activity (c-Met Kinase Inhibition, IC50).
The mark [4] stands for this setting: read-out: ALK Activity (ALK Kinase Inhibition, IC50).
Setting [5] is: 1 μM ATP (Km level), 10 ng/mL c-Met; read-out: cMet Activity (c-Met kinase inhibition, IC50 class).
The mark [6] stands for this setting: 30 ng/ml ALK, 37° C., 15 minutes, read-out: ALK Activity (ALK kinase inhibition, IC50 class).

Structures are written as SMILES. Read-outs that look alike come from different tables or passages of the source. A value given as a limit tells only on which side of the number the result lay.

T2 sequence (Q9UM73 19-1620): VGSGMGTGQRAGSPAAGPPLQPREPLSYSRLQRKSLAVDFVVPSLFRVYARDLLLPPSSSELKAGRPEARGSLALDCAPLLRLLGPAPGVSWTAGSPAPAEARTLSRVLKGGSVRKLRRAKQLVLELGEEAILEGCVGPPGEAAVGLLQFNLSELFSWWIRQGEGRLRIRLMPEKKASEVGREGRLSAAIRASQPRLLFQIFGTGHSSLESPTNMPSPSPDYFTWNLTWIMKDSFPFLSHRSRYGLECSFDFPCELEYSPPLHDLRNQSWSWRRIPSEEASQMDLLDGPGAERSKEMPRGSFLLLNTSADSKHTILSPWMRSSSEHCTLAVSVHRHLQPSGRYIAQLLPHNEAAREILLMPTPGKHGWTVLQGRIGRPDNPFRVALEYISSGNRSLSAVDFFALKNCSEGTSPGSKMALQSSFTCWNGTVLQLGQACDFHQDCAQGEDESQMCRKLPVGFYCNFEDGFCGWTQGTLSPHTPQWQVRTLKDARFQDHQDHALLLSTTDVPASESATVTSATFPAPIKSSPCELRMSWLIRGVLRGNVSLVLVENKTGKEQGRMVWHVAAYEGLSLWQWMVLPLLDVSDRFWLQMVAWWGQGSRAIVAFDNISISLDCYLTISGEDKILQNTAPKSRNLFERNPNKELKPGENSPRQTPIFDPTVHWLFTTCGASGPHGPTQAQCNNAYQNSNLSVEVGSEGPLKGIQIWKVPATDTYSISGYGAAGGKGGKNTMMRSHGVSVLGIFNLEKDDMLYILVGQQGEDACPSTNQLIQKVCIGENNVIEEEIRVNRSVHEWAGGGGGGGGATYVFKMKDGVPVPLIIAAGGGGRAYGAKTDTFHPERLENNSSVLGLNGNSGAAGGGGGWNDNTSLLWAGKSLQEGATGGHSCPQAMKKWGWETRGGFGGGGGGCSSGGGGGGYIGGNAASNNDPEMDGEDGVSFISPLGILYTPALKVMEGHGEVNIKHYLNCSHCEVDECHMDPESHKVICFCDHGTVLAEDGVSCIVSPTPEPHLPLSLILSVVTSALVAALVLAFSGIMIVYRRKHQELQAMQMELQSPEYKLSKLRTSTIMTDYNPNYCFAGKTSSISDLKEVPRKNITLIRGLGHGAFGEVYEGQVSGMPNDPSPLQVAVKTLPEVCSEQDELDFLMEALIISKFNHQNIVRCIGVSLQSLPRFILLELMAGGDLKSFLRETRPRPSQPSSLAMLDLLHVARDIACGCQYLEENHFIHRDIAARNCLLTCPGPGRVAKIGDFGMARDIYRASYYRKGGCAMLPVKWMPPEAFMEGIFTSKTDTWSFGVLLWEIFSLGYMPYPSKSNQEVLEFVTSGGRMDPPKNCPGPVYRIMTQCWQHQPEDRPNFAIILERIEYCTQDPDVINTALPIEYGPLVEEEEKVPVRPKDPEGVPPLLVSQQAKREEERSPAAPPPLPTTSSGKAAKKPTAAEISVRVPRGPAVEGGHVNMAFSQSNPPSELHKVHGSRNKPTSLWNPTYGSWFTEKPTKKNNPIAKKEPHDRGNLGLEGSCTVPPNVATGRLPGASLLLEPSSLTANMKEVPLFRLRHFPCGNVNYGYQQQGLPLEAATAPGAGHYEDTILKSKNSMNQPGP
T1 sequence (P08581 956-1390 limits assumed): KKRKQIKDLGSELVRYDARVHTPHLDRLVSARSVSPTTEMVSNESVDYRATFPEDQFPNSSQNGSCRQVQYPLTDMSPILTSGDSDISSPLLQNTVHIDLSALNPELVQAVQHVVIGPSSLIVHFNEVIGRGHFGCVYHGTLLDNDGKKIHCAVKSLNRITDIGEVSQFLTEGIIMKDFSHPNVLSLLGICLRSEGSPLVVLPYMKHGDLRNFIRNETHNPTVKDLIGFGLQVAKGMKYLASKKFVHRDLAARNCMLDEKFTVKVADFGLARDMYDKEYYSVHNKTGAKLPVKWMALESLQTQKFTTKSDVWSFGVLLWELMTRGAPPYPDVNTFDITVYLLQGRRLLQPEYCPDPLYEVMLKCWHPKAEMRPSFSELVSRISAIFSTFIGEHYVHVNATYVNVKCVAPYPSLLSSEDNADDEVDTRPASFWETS

In general, IC50 refers to the point on the concentration scale where inhibition reaches its midpoint. For the molecule `COCCN(C)C1CCc2ccc(Nc3ncc(Cl)c(N[C@H]4[C@@H](C(N)=O)[C@@H]5C=C[C@H]4C5)n3)c(OC)c2CC1` (single isomer, unassigned) [Example 700], the IC50 in assay [1] (setting [3]) is > 10 µM; in assay [2] (setting [4]) it was < 0.1 µM.

`COCCN(C)C1CCc2ccc(Nc3ncc(Cl)c(N[C@H]4[C@@H](C(N)=O)[C@@H]5C=C[C@H]4C5)n3)c(OC)c2CC1` (single isomer, unassigned) [Example 701]: the IC50 was > 10 µM in assay [1] (setting [3]) and < 0.1 µM in assay [2] (setting [4]).

Regarding `COCCOC(=O)C1[C@@H]2C=C[C@@H](C2)[C@H]1Nc1nc(Nc2ccc3c(c2OC)CC[C@@H](N2CCOCC2)CC3)ncc1Cl` (single isomer, unassigned) [Example 904], the results for the IC50 in assay [1] (setting [3]) and in assay [2] (setting [4]) were > 10 µM and 1 to 10 µM, respectively.

As to `COCCOC(=O)C1[C@@H]2C=C[C@@H](C2)[C@H]1Nc1nc(Nc2ccc3c(c2OC)CC[C@@H](N2CCOCC2)CC3)ncc1Cl` (single isomer, unassigned) [Example 905], the IC50 in assay [1] (setting [3]) was > 10 µM; in assay [2] (setting [4]), 0.1 to 1 µM.

On to `COc1c(Nc2ncc(Cl)c(N[C@H]3[C@@H](C(N)=O)[C@@H]4C=C[C@H]3C4)n2)ccc2c1CCCC(N1CCOCC1)C2` (single isomer, unassigned) [Example 940], for which the half-inhibitory concentration (IC50) in assay [1] (cMet Activity (c-Met Kinase Inhibition, IC50), 1 μM ATP (Km level)) was > 10 µM; in assay [2] (setting [4]), < 0.1 µM.

With `COc1c(Nc2ncc(Cl)c(N[C@H]3[C@@H](C(N)=O)[C@@H]4C=C[C@H]3C4)n2)ccc2c1CCCC(N1CCOCC1)C2` (single isomer, unassigned) [Example 941], the concentration for half-maximal inhibition (IC50) in assay [1] (read-out: cMet Activity (c-Met Kinase Inhibition, IC50); 1 μM ATP (Km level)) was > 10 µM; in assay [2] (setting [4]) it was < 0.1 µM.

For `COc1ccc(Nc2ncc(Cl)c(N[C@H]3[C@@H](C(N)=O)[C@@H]4C=C[C@H]3C4)n2)c2c1CCCC(N1CCOCC1)C2` (single isomer, unassigned) [Example 942], the IC50 in assay [1] (setting [3]) is > 10 µM; in assay [2] (setting [4]), 1 to 10 µM.

In the case of `COc1ccc(Nc2ncc(Cl)c(N[C@H]3[C@@H](C(N)=O)[C@@H]4C=C[C@H]3C4)n2)c2c1CCCC(N1CCOCC1)C2` (single isomer, unassigned) [Example 943], the 50% inhibitory concentration (IC50) in assay [1] (setting [3]) was > 10 µM; in assay [2] (setting [4]), 1 to 10 µM.

On to `COc1cc2c(cc1Nc1ncc(Cl)c(N[C@H]3[C@@H](C(N)=O)[C@@H]4C=C[C@H]3C4)n1)CCC(NCC(F)F)CC2` (single isomer, unassigned) [Example 1053], for which the IC50 in assay [1] (setting [5]) is > 10 µM; in assay [2] (setting [6]), < 0.1 µM.

`COc1cc2c(cc1Nc1ncc(Cl)c(N[C@H]3[C@@H](C(N)=O)[C@@H]4C=C[C@H]3C4)n1)CCC(NCC(F)F)CC2` (single isomer, unassigned) [Example 1054]: the results for the 50% inhibitory concentration (IC50) in assay [1] (setting [5]) and in assay [2] (setting [6]) were > 10 µM and < 0.1 µM, respectively.

On to `COc1cc2c(cc1Nc1ncc(Cl)c(N[C@@H]3CCCC[C@H]3NS(C)(=O)=O)n1)CCC(NCC(F)F)CC2` (single isomer, unassigned) [Example 1057], for which the values for the concentration for half-maximal inhibition (IC50) in assay [1] (setting [5]) and in assay [2] (setting [6]) were > 10 µM and < 0.1 µM, respectively.

For `COc1cc2c(cc1Nc1ncc(Cl)c(N[C@@H]3CCCC[C@H]3NS(C)(=O)=O)n1)CCC(NCC(F)F)CC2` (single isomer, unassigned) [Example 1058], the values for the IC50 in assay [1] (setting [5]) and in assay [2] (setting [6]) were > 10 µM and < 0.1 µM, respectively.

As to `COc1ccc2c(c1Nc1ncc(Cl)c(N[C@@H]3CCCC[C@H]3NS(C)(=O)=O)n1)CCC(NCC(F)F)CC2` (single isomer, unassigned) [Example 1074], the 50% inhibitory concentration (IC50) in assay [1] (setting [5]) was > 10 µM; in assay [2] (setting [6]) it was 0.1 to 1 µM.

With `COc1ccc2c(c1Nc1ncc(Cl)c(N[C@@H]3CCCC[C@H]3NS(C)(=O)=O)n1)CCC(NCC(F)F)CC2` (single isomer, unassigned) [Example 1075], the results for the IC50 in assay [1] (setting [5]) and in assay [2] (setting [6]) were > 10 µM and 1 to 10 µM, respectively.

As to `COc1cc2c(cc1Nc1ncc(Cl)c(N[C@@H]3CCCC[C@H]3NS(C)(=O)=O)n1)CCC(NCCO)CC2` (single isomer, unassigned) [Example 1094], the IC50 was > 10 µM in assay [1] (setting [5]) and < 0.1 µM in assay [2] (setting [6]).

`COc1cc2c(cc1Nc1ncc(Cl)c(N[C@@H]3CCCC[C@H]3NS(C)(=O)=O)n1)CCC(NCCO)CC2` (single isomer, unassigned) [Example 1095]: the half-inhibitory concentration (IC50) is > 10 µM in assay [1] (setting [5]) and < 0.1 µM in assay [2] (setting [6]).
